Results on 37 molecules are retold here after patent US10472347B2, “Aminopyrazine compounds with A2A antagonist properties” (Merck Sharp & Dohme Corp., priority 2014, dated 2019).

SMILES strings stand for the structures.

T1 sequence (P29274 whole entry): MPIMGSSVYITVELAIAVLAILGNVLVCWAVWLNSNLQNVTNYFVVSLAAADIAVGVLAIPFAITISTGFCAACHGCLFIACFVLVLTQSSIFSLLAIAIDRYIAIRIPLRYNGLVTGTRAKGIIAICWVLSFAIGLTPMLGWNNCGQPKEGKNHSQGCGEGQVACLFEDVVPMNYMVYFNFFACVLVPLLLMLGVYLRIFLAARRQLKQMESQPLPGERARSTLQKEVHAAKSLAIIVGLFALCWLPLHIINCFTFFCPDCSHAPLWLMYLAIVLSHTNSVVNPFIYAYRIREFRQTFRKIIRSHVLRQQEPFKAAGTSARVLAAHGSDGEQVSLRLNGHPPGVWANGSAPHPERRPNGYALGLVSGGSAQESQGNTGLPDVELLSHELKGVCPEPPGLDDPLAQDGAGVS

This test addresses T1, human A2a receptor (Homo sapiens, UniProt P29274).
T1 construct: purchased Perkin-Elmer RBHA2AM400UA; host or cells: HEK293 cells (membranes)
Nature of the test: A2a competition binding assay, Scintillation Proximity technology. The conditions noted are these: membranes from HEK293 cells expressing human A2a receptor; Ki by Cheng-Prusoff equation. Put shortly:
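Membranes from HEK293 cells expressing human A2a, adenosine deaminase-treated, incubated 1 h at room temperature with compound (3000 to 0.15 nM) and 0.5 nM tritiated pyrazolotriazolopyrimidine radioligand on WGA SPA beads in Ca/Mg-free PBS + 10 mM MgCl2. Non-specific binding with 1 μM CGS15943; Ki by Cheng-Prusoff.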
Broadly, the Ki is a measure of affinity in units of concentration, obtained from inhibition or displacement. Low values mean tighter binding, high ones weaker binding. Turning to `C[C@@H](NC(=O)c1nc(Cl)c(-n2nccn2)nc1N)c1ccc2ccccc2n1` [Ex-287, 3-amino-6-chloro-N-[(1R)-1-quinolin-2-ylethyl]-5-(2H-1,2,3-triazol-2-yl)pyrazine-2-carboxamide], the affinity corresponds to a Ki of 131 nM. Molecule `Nc1nc(-n2nccn2)c(Cl)nc1C(=O)NCc1ccccc1Br` [Ex-288, 3-amino-N-(2-bromobenzyl)-6-chloro-5-(2H-1,2,3-triazol-2-yl)pyrazine-2-carboxamide] came in with a Ki of 1.9 nM.

In turn, `Nc1nc(-n2nccn2)c(Cl)nc1C(=O)NCCc1ccccc1Br` [Ex-289, 3-amino-N-[2-(2-bromophenyl)ethyl]-6-chloro-5-(2H-1,2,3-triazol-2-yl)pyrazine-2-carboxamide] had an inhibitory constant (Ki) of 34.8 nM. With `CN(Cc1cccc2cccnc12)C(=O)c1nc(Cl)c(-n2nccn2)nc1N` [Ex-290, 3-amino-6-chloro-N-methyl-N-(quinolin-8-ylmethyl)-5-(2H-1,2,3-triazol-2-yl)pyrazine-2-carboxamide], the Ki was found to be 318 nM. Then `Nc1nc(-n2nccn2)c(Cl)nc1C(=O)N1CCc2cccc(Br)c2C1` [Ex-292, 3-[(8-bromo-3,4-dihydroisoquinolin-2(1H)-yl)carbonyl]-5-chloro-6-(2H-1,2,3-triazol-2-yl)pyrazin-2-amine], with 54.8 nM; and `Nc1nc(-n2nccn2)c(Cl)nc1C(=O)NC1CCNc2ccccc21` (stereo not shown) [Ex-293, 3-amino-6-chloro-N-(1,2,3,4-tetrahydroquinolin-4-yl)-5-(2H-1,2,3-triazol-2-yl)pyrazine-2-carboxamide], with 107 nM; and `COc1ccc(CCNC(=O)c2nc(Cl)c(-n3nccn3)nc2N)cc1OC` [Ex-294, 3-amino-6-chloro-N-[2-(3,4-dimethoxyphenyl)ethyl]-5-(2H-1,2,3-triazol-2-yl)pyrazine-2-carboxamide], with 68.8 nM.

`Nc1nc(-n2nccn2)c(Cl)nc1C(=O)NCc1cnn2ccccc12` [Ex-295, 3-amino-6-chloro-N-(pyrazolo[1,5-a]pyridin-3-ylmethyl)-5-(2H-1,2,3-triazol-2-yl)pyrazine-2-carboxamide] returned a Ki of 13.6 nM. Then `Nc1nc(-n2nccn2)c(Cl)nc1C(=O)NCc1cccc2cnccc12` [Ex-296, 3-amino-6-chloro-N-(isoquinolin-5-ylmethyl)-5-(2H-1,2,3-triazol-2-yl)pyrazine-2-carboxamide], with 35.6 nM. Consider `Nc1nc(-n2nccn2)c(Cl)nc1C(=O)NCc1cccc2ccncc12` [Ex-297, 3-amino-6-chloro-N-(isoquinolin-8-ylmethyl)-5-(2H-1,2,3-triazol-2-yl)pyrazine-2-carboxamide], for which the affinity, expressed as Ki, was 1.65 nM.

Turning to `Nc1nc(-n2nccn2)c(Cl)nc1C(=O)NCc1nc2ccccc2s1` [Ex-298, 3-amino-N-(1,3-benzothiazol-2-ylmethyl)-6-chloro-5-(2H-1,2,3-triazol-2-yl)pyrazine-2-carboxamide], affinity was put at a Ki of 32.9 nM. `Nc1nc(-n2nccn2)c(Cl)nc1C(=O)NCc1nc2ccccc2o1` [Ex-299, 3-amino-N-(1,3-benzoxazol-2-ylmethyl)-6-chloro-5-(2H-1,2,3-triazol-2-yl)pyrazine-2-carboxamide] registered a Ki of 33.6 nM. In turn, `Nc1nc(-n2nccn2)c(Cl)nc1C(=O)NCc1cccc2nccnc12` [Ex-300, 3-amino-6-chloro-N-(quinoxalin-5-ylmethyl)-5-(2H-1,2,3-triazol-2-yl)pyrazine-2-carboxamide] returned an inhibition constant Ki of 44.4 nM. As to `Nc1nc(-n2nccn2)c(Cl)nc1C(=O)NCc1ccnc2ccccc12` [Ex-301, 3-amino-6-chloro-N-(quinolin-4-ylmethyl)-5-(2H-1,2,3-triazol-2-yl)pyrazine-2-carboxamide], the affinity, expressed as Ki, was 182 nM. With `Nc1nc(-n2nccn2)c(Cl)nc1C(=O)NCc1nc2ccccc2[nH]1` [Ex-302, 3-amino-N-(1H-benzimidazol-2-ylmethyl)-6-chloro-5-(2H-1,2,3-triazol-2-yl)pyrazine-2-carboxamide], the Ki is 28.3 nM.

Consider `Nc1ccccc1CNC(=O)c1nc(Cl)c(-n2nccn2)nc1N` [Ex-303, 3-amino-N-(2-aminobenzyl)-6-chloro-5-(2H-1,2,3-triazol-2-yl)pyrazine-2-carboxamide], for which the inhibition constant (Ki) came out at 14.4 nM. Next, `Nc1cccc(F)c1CNC(=O)c1nc(Cl)c(-n2nccn2)nc1N` [Ex-304, 3-amino-N-(2-amino-6-fluorobenzyl)-6-chloro-5-(2H-1,2,3-triazol-2-yl)pyrazine-2-carboxamide]: 3.6 nM; `Nc1nc(-n2nccn2)c(Cl)nc1C(=O)NCc1cnc2ccccn12` [Ex-305, 3-amino-6-chloro-N-(imidazo[1,2-a]pyridin-3-ylmethyl)-5-(2H-1,2,3-triazol-2-yl)pyrazine-2-carboxamide]: 49.5 nM; `Nc1nc(-n2nccn2)c(Cl)nc1C(=O)NCc1ccc2ccccc2n1` [Ex-306, 3-amino-6-chloro-N-(quinolin-2-ylmethyl)-5-(2H-1,2,3-triazol-2-yl)pyrazine-2-carboxamide]: 48.6 nM. Next, `Nc1nc(-n2nccn2)c(Cl)nc1C(=O)NCc1cc2ccccc2cn1` [Ex-307, 3-amino-6-chloro-N-(isoquinolin-3-ylmethyl)-5-(2H-1,2,3-triazol-2-yl)pyrazine-2-carboxamide]: 21.6 nM; `Nc1nc(-n2nccn2)c(Cl)nc1C(=O)NCc1cc2ccccc2[nH]1` [Ex-308, 3-amino-6-chloro-N-(1H-indol-2-ylmethyl)-5-(2H-1,2,3-triazol-2-yl)pyrazine-2-carboxamide]: 34.5 nM; `Nc1nc(-n2nccn2)c(Cl)nc1C(=O)NCc1cccc2ncccc12` [Ex-309, 3-amino-6-chloro-N-(quinolin-5-ylmethyl)-5-(2H-1,2,3-triazol-2-yl)pyrazine-2-carboxamide]: 180 nM. On to `Nc1nc(-n2nccn2)c(Cl)nc1C(=O)NCc1cn2ccsc2n1` [Ex-310, 3-amino-6-chloro-N-(imidazo[2,1-b][1,3]thiazol-6-ylmethyl)-5-(2H-1,2,3-triazol-2-yl)pyrazine-2-carboxamide], for which the inhibition constant Ki turned out to be 15.7 nM.

`Nc1nc(-n2nccn2)c(Cl)nc1C(=O)NCCc1cnccn1` [Ex-311, 3-amino-6-chloro-N-(2-pyrazin-2-ylethyl)-5-(2H-1,2,3-triazol-2-yl)pyrazine-2-carboxamide] registered a Ki of 1160 nM. Next, `Nc1nc(-n2nccn2)c(Cl)nc1C(=O)N[C@@H](CO)c1ccccc1` [Ex-312, 3-amino-6-chloro-N-[(1R)-2-hydroxy-1-phenylethyl]-5-(2H-1,2,3-triazol-2-yl)pyrazine-2-carboxamide]: 607 nM.

As to `Nc1nc(-n2nccn2)c(Cl)nc1C(=O)N[C@H](CO)c1ccccc1` [Ex-313, 3-amino-6-chloro-N-[(1S)-2-hydroxy-1-phenylethyl]-5-(2H-1,2,3-triazol-2-yl)pyrazine-2-carboxamide], the Ki is 22.8 nM. Then `Nc1nc(-n2nccn2)c(Cl)nc1C(=O)NCc1cccc2c1C(=O)NC2` [Ex-314, 3-amino-6-chloro-N-[(3-oxo-2,3-dihydro-1H-isoindol-4-yl)methyl]-5-(2H-1,2,3-triazol-2-yl)pyrazine-2-carboxamide], with 3.7 nM. Next, `Nc1nc(-n2nccn2)c(Cl)nc1C(=O)NCCOc1ccccc1` [Ex-315, 3-amino-6-chloro-N-(2-phenoxyethyl)-5-(2H-1,2,3-triazol-2-yl)pyrazine-2-carboxamide]: 195 nM; `Nc1nc(-n2nccn2)c(Cl)nc1C(=O)N[C@@H]1C[C@@]1(F)c1ccccc1` [Ex-316, 3-amino-6-chloro-N-[(1R,2R)-2-fluoro-2-phenylcyclopropyl]-5-(2H-1,2,3-triazol-2-yl)pyrazine-2-carboxamide]: 66.9 nM; `Nc1nc(-n2nccn2)c(Cl)nc1C(=O)N[C@H]1C[C@@]1(F)c1ccccc1` [Ex-317, 3-amino-6-chloro-N-[(1S,2R)-2-fluoro-2-phenylcyclopropyl]-5-(2H-1,2,3-triazol-2-yl)pyrazine-2-carboxamide]: 2200 nM. As for `COC(=O)[C@@H](CO)NC(=O)c1nc(Cl)c(-n2nccn2)nc1N` [Ex-318, methyl N-{[3-amino-6-chloro-5-(2H-1,2,3-triazol-2-yl)pyrazin-2-yl]carbonyl}-D-serinate], the Ki worked out at 317 nM. Next, `Nc1nc(-n2nccn2)c(Cl)nc1C(=O)NCC1CCCc2cccnc21` (stereo not shown) [Ex-319, 3-amino-6-chloro-N-(5,6,7,8-tetrahydroquinolin-8-ylmethyl)-5-(2H-1,2,3-triazol-2-yl)pyrazine-2-carboxamide]: 77.9 nM.

The molecule `Nc1nc(-n2nccn2)c(Cl)nc1C(=O)N[C@H](CO)Cc1ccccc1` [Ex-320, 3-amino-N-[(1S)-1-benzyl-2-hydroxyethyl]-6-chloro-5-(2H-1,2,3-triazol-2-yl)pyrazine-2-carboxamide] gave an inhibition constant (Ki) of 149 nM. Next, `Nc1nc(-n2nccn2)c(Cl)nc1C(=O)NCc1ncc[nH]1` [Ex-321, 3-amino-6-chloro-N-(1H-imidazol-2-ylmethyl)-5-(2H-1,2,3-triazol-2-yl)pyrazine-2-carboxamide]: 70.2 nM; `CN1CCC(NC(=O)c2nc(Cl)c(-n3nccn3)nc2N)c2ccccc21` (stereo not shown) [Ex-322, 3-amino-6-chloro-N-(1-methyl-1,2,3,4-tetrahydroquinolin-4-yl)-5-(2H-1,2,3-triazol-2-yl)pyrazine-2-carboxamide]: 61.9 nM; `COC(=O)[C@@H](NC(=O)c1nc(Cl)c(-n2nccn2)nc1N)c1ccccc1` [Ex-323, methyl (2S)-({[3-amino-6-chloro-5-(2H-1,2,3-triazol-2-yl)pyrazin-2-yl]carbonyl}amino) (phenyl)ethanoate]: 65.3 nM. For the molecule `Nc1nc(-n2nccn2)c(Cl)nc1C(=O)N[C@H](CO)c1ccccn1` [Ex-324, 3-amino-6-chloro-N-[(1S)-2-hydroxy-1-pyridin-2-ylethyl]-5-(2H-1,2,3-triazol-2-yl)pyrazine-2-carboxamide], the affinity corresponds to a Ki of 54 nM.
